One test concerns β-catenin in H1299 cells. The test is described as follows: Western blotting, β-catenin phosphorylation. It counts as cell-based, human. To be noted: H1299, PQ10 2 µmol/L, 1 hour; KT5823 0.1 µmol/L, H89 1 µmol/L. As to the method: (§1) Whole cell extraction was performed according to a previously described method using cell lysing buffer (Cell Signaling) supplemented with 10 mmol/L NaF for protein phosphorylation studies. Cell lysates were separated by 4-12% gradient, 7% or 10% pre-casting PAGE (Novex/Invitrogen) followed by electrophoretic transfer to a nitrocellulose membrane. Western blotting procedures were performed using Chemiluminescence Reagent (Pierce) and visualized using Chemi Doc Imaging System (BioRad).

Test [1] concerns cleaved PARP and caspase 3 in H1299 cells. The test is described as follows: Western blotting, cleaved PARP and caspase 3 (apoptosis). It counts as cell-based, human. To be noted: H1299, 24 hours of treatment. As for the experimental part:
as §1

The subject of test [2] is intracellular cGMP levels in H1299 cells. The test is described as follows: cGMP biosensor assay (luciferase). As to conditions: H1299, CNP 100 nmol/L; sildenafil 1 µmol/L, IBMX 100 µmol/L. It counts as cell-based, human. As to the method: Stable cell lines with an expression of luciferase-based cGMP biosensor were established from H1299 NSCLC cells and HEK293 cells using a genetically encoded GAF-Luc construct (Promega), containing a cGMP-specific binding domain from human PDE5A GAF-A domain fused to modified firefly luciferase (35). Cells were pre-incubated at room temperature in CO2 independent media supplemented with 10% FBS and 5 mmol/L luciferin. For the measurement of intracellular cGMP levels, sodium nitroprusside (SNP) or C-type natriuretic peptide (CNP) in combination with PDE inhibitors were added to initiate the experiment and the increased luminescence values in live cells were detected constantly over a period time of 2 hours.

For another test, the system named is H460 cells. The test is described as follows: Growth assay (Cell Titer Glo). The test is classed as cell-based. To be noted: Homo sapiens, NCI-H460; H460, 72 hours, 5% serum; read-out: Growth inhibition IC50. As for the experimental part: (§2) Cells were plated in half area 96-well microtiter plates (Corning) at a density of 3, 000 cells per well. For drug treatment, cells were treated with compound or DMSO as vehicle (final concentration at 0.2%). For siRNA assays, cells were transfected with siRNAs under the same condition as described above. The effect of treatment on cell growth was measured using the Cell Titer Glo (CTG) assay (Promega) as specified by the measurement of viable cells based on ATP content after 72 hours standard culture. All growth assay involving NSCLCs and NHAECs were performed in the presence of 5% serum.
(§3) Drug effects on cell growth and IC50 values were determined as described previously. All experiments were repeated a minimum of three times to determine the reproducibility of the results. All error bars represent standard error of the mean (SEM). Statistical analysis was performed using Student’s t test or other as indicated. A P value of <0.05 was considered statistically significant.

A further test concerns A549 cells. Nature of the test: Growth assay (Cell Titer Glo). It counts as cell-based. As to conditions: Homo sapiens; A549, 72 hours, 5% serum; read-out: Growth inhibition IC50. As to the method: as §2, §3
Another test deals with H23 cells. The test is described as follows: Growth assay (Cell Titer Glo). The test is classed as cell-based. As to conditions: Homo sapiens, NCI-H23; H23, 72 hours; read-out: Growth inhibition IC50. As for the experimental part:
as §2, §3

Another test deals with H322M cells. Nature of the test: Growth assay (Cell Titer Glo). It counts as cell-based. To be noted: Homo sapiens, NCI-H322M, 72 hours, read-out: Growth inhibition IC50. As for the experimental part:
as §2, §3

The next test has as its system EKVX cells. The test is described as follows: Growth assay (Cell Titer Glo). The test is classed as cell-based. To be noted: Homo sapiens, 72 hours, read-out: Growth inhibition IC50. As to the method:
as §2, §3

The subject of a further test is H522 cells. The test is described as follows: Growth assay (Cell Titer Glo). The test is classed as cell-based. As to conditions: Homo sapiens, NCI-H522; H522, 72 hours; read-out: Growth inhibition IC50. As for the experimental part:
as §2, §3

Another test has as its system HOP-92 cells. Nature of the test: Growth assay (Cell Titer Glo). It counts as cell-based. As to conditions: Homo sapiens; HOP-92, 72 hours; read-out: Growth inhibition IC50. As to the method: as §2, §3
A further test has as its system H226 cells. The test is described as follows: Growth assay (Cell Titer Glo). It counts as cell-based. As to conditions: Homo sapiens, NCI-H226; H226, 72 hours; read-out: Growth inhibition IC50. As for the experimental part: as §2, §3
Another test deals with HOP62 cells. The test is described as follows: Growth assay (Cell Titer Glo). It counts as cell-based, human. As to conditions: Homo sapiens, HOP-62; HOP62, 72 hours, 5% serum; read-out: Growth inhibition IC50. As to the method:
as §2, §3

The next test has as its system H1299 cells. Nature of the test: Growth assay (Cell Titer Glo). It counts as cell-based, human. As to conditions: not shown. As for the experimental part:
as §2, §3

On to `O=S(=O)(NCCNC/C=C/c1ccc(Br)cc1)c1cccc2cnccc12` [H89], for which the “effect on PQ10-induced phosphorylation of β-catenin at pSer552” value in the test on β-catenin in H1299 cells is “partial inhibition”. For the same compound, the “effect on PQ10-induced activation of PARP and caspase 3” value in test [1] is listed as “ineffective”.
For the compound `CC(C)Cn1c(=O)n(C)c(=O)c2[nH]cnc21` [IBMX], the “effect on luminescence values in biosensor assay” value in test [2] is “increased luminescence levels”.
`COC(=O)[C@@]1(OC)C[C@H]2O[C@]1(C)n1c3ccccc3c3c4c(c5c6ccccc6n2c5c31)C(=O)N(C)C4` [KT5823]: the “effect on PQ10-induced phosphorylation of β-catenin at pSer552” value in the test with β-catenin in H1299 cells is reported as “partial inhibition”. For the same compound, in [1], the “effect on PQ10-induced activation of PARP and caspase 3” value was “attenuated”.
As to `COc1ccc(Cc2nccc3cc(OC)c(OC)cc23)cc1OC` [Papaverine], the 50% inhibitory concentration (IC50) came to 16.3 µM in the test on H460 cells and 17.2 µM in the test with A549 cells.
Take `Cn1cc(-c2ccncc2)c(-c2ccc(OCc3ccc4ccccc4n3)cc2)n1` [Pf-2545920]: the IC50 in the test with H460 cells stood at 15.2 µM; in the test with H23 cells, 18.1 µM; in the test on H322M cells it was 20 µM; in the test with EKVX cells, 18.6 µM; in the test with H522 cells, 25.8 µM; in the test on HOP-92 cells, 21.4 µM. Further, the figures for the IC50 in the test on A549 cells, in the test on H226 cells and with HOP62 cells were 15.8 µM, 21.1 µM and 22.9 µM, respectively.
In the case of `CCCc1nn(C)c2c(=O)[nH]c(-c3cc(S(=O)(=O)N4CCN(C)CC4)ccc3OCC)nc12` [Sildenafil, sildenafil], the “effect on luminescence values in biosensor assay” value in [2] is “did not affect luminescence values”. Besides, the “effect on growth of H1299 cells” value in the test with H1299 cells was “no effect”.
